Measurements: ChEMBL document CHEMBL1799939, “Synthesis and biological evaluation of novel thiazolidinedione analogues as 15-hydroxyprostaglandin dehydrogenase inhibitors” (J Med Chem, 2011)
Calls of active or inactive are those of the source. The rule behind the calls is not given here.

Key:
[1] = target: T1, 15-hydroxyprostaglandin dehydrogenase [NAD(+)] (Homo sapiens) (UniProt P15428); experiment: Inhibition of human 15-PGDH in human A549 cells assessed as increase in IL1-beta stimulated PGE2 production at 5 uM after 5 hrs by enzyme immunoassay; format: cell-based
T1 sequence (whole entry): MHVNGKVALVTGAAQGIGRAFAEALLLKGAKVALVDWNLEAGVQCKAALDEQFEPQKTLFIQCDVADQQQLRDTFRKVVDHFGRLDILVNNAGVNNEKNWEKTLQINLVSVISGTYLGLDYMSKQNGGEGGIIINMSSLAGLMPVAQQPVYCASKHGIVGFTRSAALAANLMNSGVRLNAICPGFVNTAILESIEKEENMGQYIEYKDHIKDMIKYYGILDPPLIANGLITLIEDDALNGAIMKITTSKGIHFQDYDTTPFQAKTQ

[2] = target: T2, 15-hydroxyprostaglandin dehydrogenase [NAD(+)] (Homo sapiens, UniProt P15428); experiment: Inhibition of human 15-PGDH expressed in Escherichia coli using PGE2 as substrate and NAD+ as coenzyme assessed as formation of NADH by spectrophotometric analysis
T2 sequence (P15428 whole entry): T1 sequence (whole entry)

A549 [3] = experiment: Inhibition of COX1 expression in human A549 cells at 5 uM after 25 hrs by RT-PCR analysis; format: functional, cell-based
A549 [4] = experiment: Induction of PGT expression in human A549 cells at 5 uM after 25 hrs by RT-PCR analysis; format: functional, cell-based
A549 [5] = experiment: Effect on COX2 expression in human A549 cells at 5 uM after 25 hrs by RT-PCR analysis; format: functional, cell-based
A549 [6] = experiment: Effect on MRP4 expression in human A549 cells at 5 uM after 25 hrs by RT-PCR analysis; format: functional, cell-based
[7] = target: T1, 15-hydroxyprostaglandin dehydrogenase [NAD(+)] (Homo sapiens); experiment: Inhibition of human 15-PGDH in human A549 cells assessed as increase in IL1-beta stimulated PGE2 production after 5 hrs by enzyme immunoassay; format: cell-based
Cavia porcellus [8] = experiment: Increase in cochlear blood flow in guinea pig at 10 ug, iv measured after 40 mins; format: functional
Cavia porcellus [9] = experiment: Increase in cochlear blood flow in guinea pig at 20 ug, iv measured after 50 mins; format: functional
HaCaT = experiment: Wound healing activity in human HaCaT cells assessed as re-epithelialization at 5 uM after 48 hrs by inverted microscopic analysis relative to control; format: functional, cell-based

In the case of `O=C1N=C(O)S/C1=C\c1ccc(OCCC2CCCCC2)c(Cl)c1`, the Activity [1] is reported as “Active”, the IC50 [2] is reported as 8 nM and the Activity (A549 [3]) is reported as “Active”. For the same compound, the Activity (A549 [4]) was “Active”, the Activity (A549 [5]) was “inactive” and the Activity (A549 [6]) was “inactive”.

`O=C1N=C(O)S/C1=C\c1ccc(OCCC2CCCCC2)cc1` was tested, and the Activity [1] was “Active”.

With `O=C1NC(=O)/C(=C/c2ccc(OC3CCCCC3)c(Cl)c2)S1` the IC50 [2] was 47 nM.

`COc1cc(/C=C2\SC(=O)N(C)C2=O)ccc1OCCC1CCCCC1` was tested, and the Activity [7] was “Dose-dependent effect” and the IC50 [2] was over 50000 nM.

For `O=C1N=C(O)S/C1=C\c1ccc(OCCCC2CCCCC2)c(Cl)c1`, the IC50 [2] was 10 nM.

`COc1cc(/C=C2\SC(=O)NC2=O)ccc1OCCC1CCCCC1` was tested, and the Activity (Cavia porcellus [8]) was 22%, the Activity [7] was “Dose-dependent effect” and the Activity [1] was “Active”. For the same compound, the IC50 [2] was 25 nM, the Activity (Cavia porcellus [9]) was 65% and the Activity (A549 [3]) was “Active”. For the same compound, the Activity (A549 [4]) was “Active”, the Activity (A549 [5]) was “inactive” and the Activity (A549 [6]) was “inactive”.

`O=C1N=C(O)S/C1=C\c1ccc(OCCCCC2CCCCC2)c(Cl)c1` showed an IC50 [2] of 24 nM.

For `O=C1N=C(O)S/C1=C\c1ccc(OCCC2CCCCC2)c(Br)c1`, the Activity [1] was “Active”, the IC50 [2] was 19 nM and the Activity (HaCaT) was “Active”.

Work on `O=C1NC(=O)/C(=C/c2ccc(OCC3CCCCC3)c(Cl)c2)S1` yielded an IC50 [2] of 28 nM.
